Data reported in paper PMC5784442 (ACS catalysis, 2017).

How the values were obtained:
‘TesA [1] = biological target: T1, ‘TesA (Escherichia coli, UniProt P0ADA1); test: X-ray crystal structure, […] A; format: binding; conditions: 3 mM octanoic acid, Homo-PIPES pH 5.0
T1 sequence (P0ADA1 27-208): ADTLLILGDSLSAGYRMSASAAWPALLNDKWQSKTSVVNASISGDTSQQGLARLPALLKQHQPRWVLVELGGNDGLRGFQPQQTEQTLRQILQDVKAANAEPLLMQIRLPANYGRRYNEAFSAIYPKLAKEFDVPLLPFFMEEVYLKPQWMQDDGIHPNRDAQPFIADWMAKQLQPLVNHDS

‘TesA [2] = biological target: T1, ‘TesA; test: DTNB assay at […] nm, free CoA release; format: biochemical; conditions: 0-120 µM substrate, 40 nM enzyme

Row | Structure (SMILES) | X-ray crystal structure, 1.65 A (‘TesA [1]) | DTNB assay at 412 nm, free CoA release (‘TesA [2])
1 | CCCCCCCC(=O)O [C8, octanoic acid] | Crystal structures of WT ‘TesA and R3.M4 bound to octanoic acid were solved | –
2 | CCCCCCCC(=O)SCCNC(=O)CCNC(=O)[C@H](O)C(C)(C)COP(=O)(O)OP(=O)(O)OC[C@H]1O[C@@H](n2cnc3c(N)ncnc32)[C@H](O)[C@@H]1OP(=O)(O)O [C8-CoA, octanoyl-CoA] | – | ‘TesA WT and R3.M4 activity on C8-CoA
3 | CCCCCCCCCCCC(=O)SCCNC(=O)CCNC(=O)[C@H](O)C(C)(C)COP(=O)(O)OP(=O)(O)OC[C@H]1O[C@@H](n2cnc3c(N)ncnc32)[C@H](O)[C@@H]1OP(=O)(O)O [C12-CoA, dodecanoyl-CoA] | – | highest in vitro ‘TesA WT activity (Figure 7A) was observed for C12-CoA, C14-CoA and C16-CoA
